Measurements from patent US6531606B1, “Pharmaceutical compositions incorporating aryl substituted olefinic amine compounds” (Targacept, Inc., priority 1997, dated 2003).
Structures can show the parent of a compound that is named as a salt. Where two headings read alike, the source gives them in different places.

Columns and labels:
[1] = molecular target: T1, high affinity CNS nicotinic receptors (Rattus norvegicus, UniProt P09483+P12390); assay: biochemical; assay type: binding; conditions: calculated from IC50 values using the method of Cheng et al.
T1 construct: from tissue

[2] = molecular target: CNS nicotinic receptors (dopamine release); assay: Determination of dopamine release; assay type: cell-based; conditions: for Emax: read-out: Dopamine Release Emax
[3] = molecular target: T2, muscle receptors (nicotinic receptors of human muscle) (Homo sapiens, UniProt P02708+P07510+Q07001); assay: Determination of interaction with muscle; assay type: cell-based; conditions: maximal activation (Emax) as percentage of maximal activation induced by (S)-(-)-nicotine
T2 construct: endogenous in cells; host or cells: cell preparations derived from muscle
Excerpt: The compounds of the present invention, when employed in effective amounts in accordance with the method of the present invention, lack the ability to elicit activation of nicotinic receptors of human muscle to any significant degree. […] Generally, typical compounds useful in carrying out the present invention activate isotopic rubidium ion flux by less than 20 percent, often by less than 15 percent, and frequently by less than 10 percent, of that elicited by an equal molar amount of (S)-(−)-nicotine.
(§1) The determination of the interaction of the compounds with muscle receptors was carried out in accordance with the techniques described in U.S. Pat. No. 5,597,919 to Dull et al., the subject matter of which is already incorporated herein by reference in its entirety. […] The maximal activation for individual compounds (Emax) was determined as a percentage of the maximal activation induced by (S)-(−)-nicotine.

[4] = molecular target: T3, ganglionic receptors (ganglionic-type nicotinic receptors) (Rattus norvegicus, UniProt P04757+P12392); assay: Determination of interaction with ganglia; assay type: cell-based; conditions: maximal activation (Emax) as percentage of maximal activation induced by (S)-(-)-nicotine
T3 construct: endogenous in cells; host or cells: cell preparations derived from the adrenal gland
Excerpt: By this is meant that a particular dose of compound resulting in prevention and/or treatment of a CNS disorder is essentially ineffective in eliciting activation of certain ganglionic-type nicotinic receptors. […] As such, the compounds of the present invention have poor ability to cause isotopic rubidium ion flux through nicotinic receptors in cell preparations derived from the adrenal gland. Generally, the compounds useful in the present invention activate isotopic rubidium ion flux by less than 25 percent, often by less than 15 percent, frequently by less than 10 percent, and even essentially 0 percent, of that elicited by an equal molar amount of (S)-(−)-nicotine.
as §1, with “ganglionic” for “muscle”

[5] = read-out: Dopamine Release EC50 (nM)

T3 sequence (P04757 26-499): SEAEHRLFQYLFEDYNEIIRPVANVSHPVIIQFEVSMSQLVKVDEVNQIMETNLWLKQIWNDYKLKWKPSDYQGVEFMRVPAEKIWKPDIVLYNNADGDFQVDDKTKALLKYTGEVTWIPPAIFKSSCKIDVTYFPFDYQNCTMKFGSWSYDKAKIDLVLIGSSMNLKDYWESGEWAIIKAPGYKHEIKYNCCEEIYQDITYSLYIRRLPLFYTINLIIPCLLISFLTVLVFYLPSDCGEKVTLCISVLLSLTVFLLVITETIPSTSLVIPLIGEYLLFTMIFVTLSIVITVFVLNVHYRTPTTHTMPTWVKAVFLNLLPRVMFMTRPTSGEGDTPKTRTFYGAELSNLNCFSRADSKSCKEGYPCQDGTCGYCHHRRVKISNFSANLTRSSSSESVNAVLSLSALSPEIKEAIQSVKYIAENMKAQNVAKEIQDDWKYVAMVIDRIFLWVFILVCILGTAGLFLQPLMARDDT
T3 sequence (P12392 21-495): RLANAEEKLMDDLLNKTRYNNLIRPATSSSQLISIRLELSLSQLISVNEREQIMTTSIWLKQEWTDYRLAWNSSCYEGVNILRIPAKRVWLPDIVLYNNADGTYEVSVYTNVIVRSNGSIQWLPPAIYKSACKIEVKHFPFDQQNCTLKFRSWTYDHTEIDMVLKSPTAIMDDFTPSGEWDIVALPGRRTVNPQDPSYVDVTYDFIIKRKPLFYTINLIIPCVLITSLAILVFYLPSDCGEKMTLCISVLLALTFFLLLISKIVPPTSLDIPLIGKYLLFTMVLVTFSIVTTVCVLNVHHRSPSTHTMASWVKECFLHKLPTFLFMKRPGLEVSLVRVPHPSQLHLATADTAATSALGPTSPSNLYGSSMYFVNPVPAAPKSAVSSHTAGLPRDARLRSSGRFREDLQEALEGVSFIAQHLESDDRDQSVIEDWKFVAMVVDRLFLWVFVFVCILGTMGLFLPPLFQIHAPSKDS
T2 sequence (P02708 21-457): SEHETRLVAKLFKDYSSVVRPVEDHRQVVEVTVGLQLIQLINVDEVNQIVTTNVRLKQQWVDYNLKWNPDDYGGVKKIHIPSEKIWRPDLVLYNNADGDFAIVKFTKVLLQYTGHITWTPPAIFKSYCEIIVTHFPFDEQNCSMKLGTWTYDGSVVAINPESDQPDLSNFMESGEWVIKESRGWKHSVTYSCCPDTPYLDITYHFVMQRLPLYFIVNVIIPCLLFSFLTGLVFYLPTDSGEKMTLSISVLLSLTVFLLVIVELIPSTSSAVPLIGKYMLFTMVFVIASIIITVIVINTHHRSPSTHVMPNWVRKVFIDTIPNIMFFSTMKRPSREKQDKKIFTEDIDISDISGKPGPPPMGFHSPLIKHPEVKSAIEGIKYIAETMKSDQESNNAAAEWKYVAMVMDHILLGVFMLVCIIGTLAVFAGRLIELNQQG
T2 sequence (P11230 24-501 partner): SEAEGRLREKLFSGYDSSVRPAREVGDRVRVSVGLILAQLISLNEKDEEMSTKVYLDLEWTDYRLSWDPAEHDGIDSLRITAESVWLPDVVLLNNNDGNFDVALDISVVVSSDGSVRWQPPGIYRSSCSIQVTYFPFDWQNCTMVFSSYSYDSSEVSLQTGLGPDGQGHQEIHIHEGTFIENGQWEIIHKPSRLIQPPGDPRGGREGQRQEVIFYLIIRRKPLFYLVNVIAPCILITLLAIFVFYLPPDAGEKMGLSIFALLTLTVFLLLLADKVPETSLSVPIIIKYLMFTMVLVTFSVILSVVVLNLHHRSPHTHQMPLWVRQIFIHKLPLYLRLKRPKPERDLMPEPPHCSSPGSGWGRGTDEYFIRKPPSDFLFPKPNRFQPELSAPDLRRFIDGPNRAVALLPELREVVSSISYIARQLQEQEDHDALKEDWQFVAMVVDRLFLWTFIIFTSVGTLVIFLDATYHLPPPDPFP
T2 sequence (Q07001 22-517): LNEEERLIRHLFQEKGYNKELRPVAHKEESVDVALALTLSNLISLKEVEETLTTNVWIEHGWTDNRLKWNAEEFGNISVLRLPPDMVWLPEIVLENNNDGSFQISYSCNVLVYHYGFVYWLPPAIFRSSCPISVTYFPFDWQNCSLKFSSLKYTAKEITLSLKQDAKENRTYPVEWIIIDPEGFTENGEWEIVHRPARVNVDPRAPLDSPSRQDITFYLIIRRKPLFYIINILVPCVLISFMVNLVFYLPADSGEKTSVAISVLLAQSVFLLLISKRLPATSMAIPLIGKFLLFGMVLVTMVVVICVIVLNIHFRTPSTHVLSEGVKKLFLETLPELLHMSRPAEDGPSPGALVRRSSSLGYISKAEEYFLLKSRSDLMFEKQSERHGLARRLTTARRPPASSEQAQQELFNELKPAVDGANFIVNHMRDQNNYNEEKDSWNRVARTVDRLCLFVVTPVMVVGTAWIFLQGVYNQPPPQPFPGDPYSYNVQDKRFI
T2 sequence (P07510 23-517): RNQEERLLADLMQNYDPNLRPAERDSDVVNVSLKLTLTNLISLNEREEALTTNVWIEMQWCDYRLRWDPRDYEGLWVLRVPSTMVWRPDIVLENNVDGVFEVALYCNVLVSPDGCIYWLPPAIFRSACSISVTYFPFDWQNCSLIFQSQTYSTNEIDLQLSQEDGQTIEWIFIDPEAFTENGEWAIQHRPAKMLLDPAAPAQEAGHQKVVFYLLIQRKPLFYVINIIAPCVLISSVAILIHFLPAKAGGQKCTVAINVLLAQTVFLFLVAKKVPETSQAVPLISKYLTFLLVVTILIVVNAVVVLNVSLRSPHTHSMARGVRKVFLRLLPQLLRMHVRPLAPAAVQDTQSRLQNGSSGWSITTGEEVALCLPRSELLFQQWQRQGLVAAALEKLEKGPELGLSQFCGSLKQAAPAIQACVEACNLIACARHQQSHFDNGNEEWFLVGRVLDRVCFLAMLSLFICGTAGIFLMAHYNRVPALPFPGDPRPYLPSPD
T1 sequence (P09483 31-630): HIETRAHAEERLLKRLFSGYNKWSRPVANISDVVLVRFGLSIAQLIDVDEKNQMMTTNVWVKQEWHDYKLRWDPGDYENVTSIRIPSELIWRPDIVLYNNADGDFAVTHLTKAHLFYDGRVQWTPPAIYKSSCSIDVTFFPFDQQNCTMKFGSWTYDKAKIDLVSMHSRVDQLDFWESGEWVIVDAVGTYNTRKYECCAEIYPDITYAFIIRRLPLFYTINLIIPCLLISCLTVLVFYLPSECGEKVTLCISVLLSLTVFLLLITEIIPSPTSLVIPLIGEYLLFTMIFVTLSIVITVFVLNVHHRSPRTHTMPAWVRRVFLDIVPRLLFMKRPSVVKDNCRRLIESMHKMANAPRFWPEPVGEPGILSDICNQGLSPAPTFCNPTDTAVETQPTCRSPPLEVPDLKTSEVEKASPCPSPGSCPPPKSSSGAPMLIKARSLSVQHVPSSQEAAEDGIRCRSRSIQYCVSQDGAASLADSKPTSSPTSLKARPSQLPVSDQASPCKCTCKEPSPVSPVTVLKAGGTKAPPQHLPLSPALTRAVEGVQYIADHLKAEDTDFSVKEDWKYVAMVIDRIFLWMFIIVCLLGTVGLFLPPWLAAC
T1 sequence (P12390 25-500): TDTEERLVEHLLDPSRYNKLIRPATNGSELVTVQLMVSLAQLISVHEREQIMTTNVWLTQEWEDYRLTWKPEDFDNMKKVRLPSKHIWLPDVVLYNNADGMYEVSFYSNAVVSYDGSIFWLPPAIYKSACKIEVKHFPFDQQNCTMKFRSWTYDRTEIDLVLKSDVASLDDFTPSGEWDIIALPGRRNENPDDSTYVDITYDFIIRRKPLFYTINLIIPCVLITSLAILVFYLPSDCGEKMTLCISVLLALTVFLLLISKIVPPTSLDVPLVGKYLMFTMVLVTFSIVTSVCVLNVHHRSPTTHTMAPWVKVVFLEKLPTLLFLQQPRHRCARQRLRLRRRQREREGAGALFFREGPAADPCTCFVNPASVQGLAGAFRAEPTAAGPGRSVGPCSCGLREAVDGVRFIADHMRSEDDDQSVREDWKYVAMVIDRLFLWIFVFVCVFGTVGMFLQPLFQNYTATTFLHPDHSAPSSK

SMILES | Ki [1] [nM] | EC50 ([2]; read-out: Dopamine Release EC50) [nM] | Emax [2] [%] | Muscle Effect (% nicotine) [3] [% nicotine] | Ganglion Effect (% nicotine) [4] [% nicotine] | EC50 [2, 5] [nM] | melting point [°C]
CCOc1cncc(/C=C/CCNC)c1 [Sample No. 7, (E)-N-Methyl-4-[3-(5-ethoxypyridin)yl]-3-buten-1-amine Sesquifumarate] | 5 | 276 | 70 | 3 | <15 |  | 
CNCC/C=C/c1cncc(Oc2ccccc2)c1 [Sample No. 3, (E)-N-Methyl-4-[3-(5-phenoxypyridin)yl]-3-buten-1-amine] | 21 |  |  | 5 | <15 | 114 | 
CNCC/C=C/c1cncc(OC(C)C)c1 [Sample No. 4, (E)-N-Methyl-4-[3-(5-isopropoxypyridin)yl]-3-buten-1-amine] | 6 |  |  | 8 | <15 |  | 
NCC/C=C/c1cccnc1.O=C(O)/C=C/C(=O)O.O=C(O)/C=C/C(=O)O [Sample No. 6, (E)-4-(3-pyridinyl)-3-buten-1-amine difumarate] | 119 |  | 81 | 15 | 23 | 5020 | 
CN1CCC[C@H]1c1cccnc1 [Sample No. C-1, (S)-(−)-nicotine, reference compound] |  |  |  | 100 | 100 |  | 
CNCC/C=C/c1cncc(-c2ccccc2)c1 [Sample No. 8, (E)-N-Methyl-4-[3-(5-phenylpyridin)yl]-3-buten-1-amine] | 184 |  |  | 8 | 0 | > 100000 | 
NCC/C=C/c1cncc(Br)c1 (as salt: fumarate) [Sample No. 2, (E)-4-[3-(5-Bromopyridin)yl]-3-buten-1-amine Hemifumarate] |  |  |  |  |  |  | 175 to 176.5
CNCC/C=C/c1cncc(OCc2ccccc2)c1 [Sample No. 1, (E)-N-Methyl-4-[3-(5-benzyloxypyridin)yl]-3-buten-1-amine] | 5 |  |  | 12 | 0 | 4000 | 
NCC/C=C/c1cncc(Br)c1 [Sample No. 2, (E)-4-[3-(5-Bromopyridin)yl]-3-buten-1-amine Hemifumarate] | 79 |  | 107 | 8 | 11 | 2400 | 
CNCC/C=C/c1cncc(COC)c1 [Sample No. 5, (E)-N-Methyl-4-[3-(5-methoxymethylpyridin)yl]-3-buten-1-amine] | 130 |  |  | 13 | 0 | 16000 | 
CNCC/C=C/c1cncc(N)c1 [Sample No. 9, (E)-N-methyl-4-[3-(5-aminopyridin)yl]-3-buten-1-amine] | 658 |  | 85 | 4 | 4 | 2000 | 
